Experiment: xn = mol fraction of the nth substance listed
Settings: Liquid, Vibrating tube method

CC1CCCCC1 [methylcyclohexane] + CCO
mass density [kg/m3]
Settings | 100 kPa | 5000 kPa | 10000 kPa | 15000 kPa | 20000 kPa | 25000 kPa | 30000 kPa | 35000 kPa | 40000 kPa | 45000 kPa
283.15 K, x2 = 0 | 777.6 | 781.4 | 785.2 | 788.7 | 792.1 | 795.3 | 798.5 | 801.5 | 804.4 | 807.3
283.15 K, x2 = 0.052 | 777.6 | 781.4 | 785.1 | 788.7 | 792.1 | 795.4 | 798.5 | 801.6 | 804.5 | 807.4
283.15 K, x2 = 0.125 | 777.7 | 781.6 | 785.3 | 788.9 | 792.4 | 795.6 | 798.8 | 801.9 | 804.8 | 807.7
283.15 K, x2 = 0.25 | 778.5 | 782.4 | 786.2 | 789.8 | 793.2 | 796.6 | 799.7 | 802.8 | 805.8 | 808.7
283.15 K, x2 = 0.375 | 779.8 | 783.6 | 787.4 | 791.1 | 794.6 | 797.9 | 801.1 | 804.2 | 807.2 | 810.1
283.15 K, x2 = 0.5 | 781.4 | 785.3 | 789.1 | 792.8 | 796.3 | 799.6 | 802.8 | 806 | 809 | 811.9
283.15 K, x2 = 0.625 | 783.5 | 787.4 | 791.3 | 794.9 | 798.5 | 801.8 | 805.1 | 808.2 | 811.3 | 814.2
283.15 K, x2 = 0.75 | 786.4 | 790.4 | 794.3 | 797.9 | 801.5 | 804.9 | 808.1 | 811.3 | 814.3 | 817.2
283.15 K, x2 = 0.875 | 790.9 | 794.8 | 798.7 | 802.4 | 805.9 | 809.3 | 812.6 | 815.8 | 818.8 | 821.8
293.15 K, x2 = 0 | 769 | 773 | 777 | 780.7 | 784.3 | 787.8 | 791.1 | 794.2 | 797.3 | 800.2
293.15 K, x2 = 0.052 | 768.8 | 772.8 | 776.8 | 780.6 | 784.2 | 787.6 | 790.9 | 794.1 | 797.2 | 800.2
293.15 K, x2 = 0.125 | 768.9 | 772.9 | 776.9 | 780.7 | 784.4 | 787.8 | 791.2 | 794.4 | 797.5 | 800.5
293.15 K, x2 = 0.25 | 769.6 | 773.7 | 777.8 | 781.6 | 785.2 | 788.7 | 792.1 | 795.3 | 798.4 | 801.5
293.15 K, x2 = 0.375 | 770.8 | 774.9 | 779 | 782.8 | 786.5 | 790 | 793.4 | 796.7 | 799.8 | 802.8
293.15 K, x2 = 0.5 | 772.5 | 776.6 | 780.7 | 784.5 | 788.2 | 791.8 | 795.2 | 798.4 | 801.6 | 804.6
293.15 K, x2 = 0.625 | 774.6 | 778.8 | 782.9 | 786.8 | 790.5 | 794 | 797.4 | 800.7 | 803.9 | 806.9
293.15 K, x2 = 0.75 | 777.7 | 781.8 | 785.9 | 789.9 | 793.6 | 797.1 | 800.5 | 803.8 | 807 | 810
293.15 K, x2 = 0.875 | 782.2 | 786.4 | 790.5 | 794.4 | 798.1 | 801.7 | 805.1 | 808.4 | 811.6 | 814.6
303.15 K, x2 = 0 | 760.4 | 764.7 | 768.9 | 772.8 | 776.6 | 780.2 | 783.7 | 787 | 790.2 | 793.3
303.15 K, x2 = 0.052 | 760.1 | 764.4 | 768.6 | 772.6 | 776.5 | 780.1 | 783.6 | 786.9 | 790.1 | 793.2
303.15 K, x2 = 0.125 | 760.1 | 764.4 | 768.6 | 772.7 | 776.5 | 780.2 | 783.6 | 787 | 790.3 | 793.4
303.15 K, x2 = 0.25 | 760.7 | 765.1 | 769.4 | 773.4 | 777.3 | 781 | 784.5 | 787.9 | 791.2 | 794.3
303.15 K, x2 = 0.375 | 761.9 | 766.3 | 770.6 | 774.7 | 778.6 | 782.3 | 785.8 | 789.2 | 792.5 | 795.7
303.15 K, x2 = 0.5 | 763.6 | 768 | 772.3 | 776.4 | 780.3 | 784 | 787.6 | 791 | 794.3 | 797.4
303.15 K, x2 = 0.625 | 765.8 | 770.2 | 774.5 | 778.6 | 782.5 | 786.3 | 789.9 | 793.3 | 796.6 | 799.8
303.15 K, x2 = 0.75 | 768.9 | 773.3 | 777.7 | 781.8 | 785.7 | 789.4 | 793.1 | 796.5 | 799.8 | 803
303.15 K, x2 = 0.875 | 773.5 | 777.9 | 782.3 | 786.4 | 790.3 | 794 | 797.6 | 801.1 | 804.4 | 807.6
313.15 K, x2 = 0 | 751.7 | 756.2 | 760.7 | 764.8 | 768.8 | 772.7 | 776.3 | 779.8 | 783.1 | 786.4
313.15 K, x2 = 0.052 | 751.1 | 755.7 | 760.1 | 764.4 | 768.4 | 772.2 | 775.9 | 779.4 | 782.8 | 786.1
313.15 K, x2 = 0.125 | 751 | 755.7 | 760.2 | 764.5 | 768.5 | 772.4 | 776.1 | 779.6 | 783 | 786.3
313.15 K, x2 = 0.25 | 751.6 | 756.3 | 760.9 | 765.2 | 769.3 | 773.2 | 776.9 | 780.5 | 783.9 | 787.2
313.15 K, x2 = 0.375 | 752.7 | 757.4 | 762 | 766.4 | 770.5 | 774.4 | 778.1 | 781.7 | 785.2 | 788.5
313.15 K, x2 = 0.5 | 754.4 | 759.1 | 763.7 | 768.1 | 772.2 | 776.1 | 779.9 | 783.5 | 786.9 | –
313.15 K, x2 = 0.625 | 756.7 | 761.4 | 766 | 770.4 | 774.5 | 778.4 | 782.2 | 785.8 | 789.3 | –
313.15 K, x2 = 0.75 | 759.9 | 764.6 | 769.2 | 773.6 | 777.7 | 781.6 | 785.4 | 789 | 792.5 | –
313.15 K, x2 = 0.875 | 764.7 | 769.3 | 773.9 | 778.3 | 782.4 | 786.3 | 790.1 | 793.7 | 797.1 | –
